Measured values taken from US12521440B2, “Degradation of bruton's tyrosine kinase (BTK) by conjugation of BTK inhibitors with E3 ligase ligand and methods of use” (BeOne Medicines I GmbH, priority 2021, dated 2026).
Structures can show the parent of a compound that is named as a salt.

Columns and labels:
BTK = target: T1, BTK (Homo sapiens, UniProt Q06187); test: BTK degradation in TMD-8 cells (HTRF assay); assay type: cell-based; conditions: 6 h treatment, HTRF BTK degradation IC50 (DC50)
T1 construct: endogenous in cells; host or cells: TMD-8 cells
In short: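 BTK levels measured by HTRF (665/620 nm) in lysates of TMD-8 cells after 6 h compound treatment, with antibody incubation overnight at room temperature. Dosing covered 8 points, 6-fold dilutions from 1 mM 500× stocks, 0.2% DMSO final. Four-parameter curve fitting gave DC50.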

HEK-293 cells = test: HEK-293 cytotoxicity detection (CellTiter-Glo); assay type: cell-based; conditions: Homo sapiens, 72 h incubation, read-out: HEK293
In short: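 Cytotoxicity IC50 derived by four-parameter curve fitting of percent inhibition of CellTiter-Glo luminescence. Compounds tested at 8 doses in 4-fold steps, 0.2% DMSO, on HEK-293 cells for 72 h.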

T1 sequence (Q06187 whole entry): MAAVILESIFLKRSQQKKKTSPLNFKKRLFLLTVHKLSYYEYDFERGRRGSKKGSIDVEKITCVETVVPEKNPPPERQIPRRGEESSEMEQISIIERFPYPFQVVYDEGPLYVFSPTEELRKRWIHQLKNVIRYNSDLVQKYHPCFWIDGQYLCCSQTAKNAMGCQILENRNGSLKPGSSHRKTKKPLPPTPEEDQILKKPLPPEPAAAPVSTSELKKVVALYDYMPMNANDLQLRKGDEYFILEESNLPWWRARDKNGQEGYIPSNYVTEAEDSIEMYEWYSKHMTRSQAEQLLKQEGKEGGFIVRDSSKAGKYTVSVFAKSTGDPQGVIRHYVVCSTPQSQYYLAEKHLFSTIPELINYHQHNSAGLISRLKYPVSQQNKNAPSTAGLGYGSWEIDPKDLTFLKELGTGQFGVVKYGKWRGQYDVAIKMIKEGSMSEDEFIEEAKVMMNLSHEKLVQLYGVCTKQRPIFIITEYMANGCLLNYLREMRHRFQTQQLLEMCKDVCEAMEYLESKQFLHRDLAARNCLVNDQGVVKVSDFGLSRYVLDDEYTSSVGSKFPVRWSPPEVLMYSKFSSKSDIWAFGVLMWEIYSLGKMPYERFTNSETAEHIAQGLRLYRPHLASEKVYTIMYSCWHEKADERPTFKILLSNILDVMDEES

Structure (SMILES)	DC50 (BTK) [nM]	IC50 (HEK-293 cells) [nM]
Cc1cc(-c2cc(Nc3ccc(N4CCN([C@H]5C[C@@H](c6ccc(N[C@@H]7CCC(=O)NC7=O)cc6)C5)CC4)cn3)ncn2)ccc1[C@@H](C)NC(=O)c1nc(C(C)(C)C)no1 [Example 52, 3-(tert-butyl)-N—((R)-1-(4-(6-((5-(4-((1S,3s)-3-(4-(((R)-2,6-dioxopiperidin-3-yl)amino)phenyl)cyclobutyl)piperazin-1-yl)pyridin-2-yl)amino)pyrimidin-4-yl)-2-methylphenyl)ethyl)-1,2,4-oxadiazole-5-carboxamide]	3.04	> 10000
Cc1cc(-c2cc(Nc3ccc(N4CCN([C@H]5C[C@H](c6ccc(N[C@H]7CCC(=O)NC7=O)cc6)C5)CC4)cn3)ncn2)ccc1[C@@H](C)NC(=O)c1nc(C(C)(C)C)no1 [Example 53, 3-(tert-butyl)-N—((R)-1-(4-(6-((5-(4-((1S,3r)-3-(4-(((S)-2,6-dioxopiperidin-3-yl)amino)phenyl)cyclobutyl)piperazin-1-yl)pyridin-2-yl)amino)pyrimidin-4-yl)-2-methylphenyl)ethyl)-1,2,4-oxadiazole-5-carboxamide formate]	1.91	> 10000
Cc1cc(-c2cc(Nc3ccc(N4CCN([C@H]5C[C@@H](c6ccc(N[C@H]7CCC(=O)NC7=O)cc6)C5)CC4)cn3)ncn2)ccc1[C@@H](C)NC(=O)c1nc(C(C)(C)C)no1 [Example 54, 3-(tert-butyl)-N—((R)-1-(4-(6-((5-(4-((1R,3s)-3-(4-(((S)-2,6-dioxopiperidin-3-yl)amino)phenyl)cyclobutyl)piperazin-1-yl)pyridin-2-yl)amino)pyrimidin-4-yl)-2-methylphenyl)ethyl)-1,2,4-oxadiazole-5-carboxamide]	4.13	> 10000
Cc1cc(-c2cc(Nc3ccc(N4CCN([C@H]5C[C@H](c6ccc(N[C@@H]7CCC(=O)NC7=O)cc6)C5)CC4)cn3)ncn2)ccc1[C@@H](C)NC(=O)c1nc(C(C)(C)C)no1 [Example 55, 3-(tert-butyl)-N—((R)-1-(4-(6-((5-(4-((1R,3r)-3-(4-(((R)-2,6-dioxopiperidin-3-yl)amino)phenyl)cyclobutyl)piperazin-1-yl)pyridin-2-yl)amino)pyrimidin-4-yl)-2-methylphenyl)ethyl)-1,2,4-oxadiazole-5-carboxamide]	2.08	> 10000
Cc1cc(-c2cc(Nc3ccc(N4CCN(C(=O)Cc5cccc(N6CCC(=O)NC6=O)c5)CC4)cn3)ncn2)ccc1[C@@H](C)NC(=O)c1nc(C(C)(C)C)no1 [Example 56, (R)-3-(tert-butyl)-N-(1-(4-(6-((5-(4-(2-(3-(2,4-dioxotetrahydropyrimidin-1(2H)-yl)phenyl)acetyl)piperazin-1-yl)pyridin-2-yl)amino)pyrimidin-4-yl)-2-methylphenyl)ethyl)-1,2,4-oxadiazole-5-carboxamide]	9.9	> 10000
Cc1cc(-c2cc(Nc3ccc(N4CCN(CC5CCN(c6cccc(CN7CCC(=O)NC7=O)c6)CC5)CC4)cn3)ncn2)ccc1[C@@H](C)NC(=O)c1nc(C(C)(C)C)no1 [Example 57, (R)-3-(tert-butyl)-N-(1-(4-(6-((5-(4-((1-(3-((2,4-dioxotetrahydropyrimidin-1(2H)-yl)methyl)phenyl)piperidin-4-yl)methyl)piperazin-1-yl)pyridin-2-yl)amino)pyrimidin-4-yl)-2-methylphenyl)ethyl)-1,2,4-oxadiazole-5-carboxamide]	29.5	> 10000
Cc1cc(-c2cc(Nc3ccc(N4CCN(CCn5cccc(CN6CCC(=O)NC6=O)c5=O)CC4)cn3)ncn2)ccc1[C@@H](C)NC(=O)c1nc(C(C)(C)C)no1 [Example 58, (R)-3-(tert-butyl)-N-(1-(4-(6-((5-(4-(2-(3-((2,4-dioxotetrahydropyrimidin-1(2H)-yl)methyl)-2-oxopyridin-1(2H)-yl)ethyl)piperazin-1-yl)pyridin-2-yl)amino)pyrimidin-4-yl)-2-methylphenyl)ethyl)-1,2,4-oxadiazole-5-carboxamide]	0.276	> 10000
Cc1cc(-c2cc(Nc3ccc(N4CCN(CC5CCN(c6ccc(CN7CCC(=O)NC7=O)cc6)CC5)CC4)cn3)ncn2)ccc1[C@@H](C)NC(=O)c1nc(C(C)(C)C)no1 [Example 59, (R)-3-(tert-butyl)-N-(1-(4-(6-((5-(4-((1-(4-((2,4-dioxotetrahydropyrimidin-1(2H)-yl)methyl)phenyl)piperidin-4-yl)methyl)piperazin-1-yl)pyridin-2-yl)amino)pyrimidin-4-yl)-2-methylphenyl)ethyl)-1,2,4-oxadiazole-5-carboxamide]	10.2	> 10000
CCc1nc(Nc2cc(-c3ccc([C@@H](C)NC(=O)c4nc(C(C)(C)C)no4)c(C)c3)ncn2)ccc1N1CCN(CC2CCN(c3ccc(N4CCC(=O)NC4=O)cc3)CC2)CC1 [Example 60, (R)-3-(tert-butyl)-N-(1-(4-(6-((5-(4-((1-(4-(2,4-dioxotetrahydropyrimidin-1(2H)-yl)phenyl)piperidin-4-yl)methyl)piperazin-1-yl)-6-ethylpyridin-2-yl)amino)pyrimidin-4-yl)-2-methylphenyl)ethyl)-1,2,4-oxadiazole-5-carboxamide]	3.93	> 10000
Cc1cc(-c2cc(Nc3ccc(N4CCN(CC5CCN(c6ccc(N7CCC(=O)NC7=O)cc6)CC5)CC4)c(C)n3)ncn2)ccc1[C@@H](C)NC(=O)c1nc(C(C)(C)C)no1 [Example 61, (R)-3-(tert-butyl)-N-(1-(4-(6-((5-(4-((1-(4-(2,4-dioxotetrahydropyrimidin-1(2H)-yl)phenyl)piperidin-4-yl)methyl)piperazin-1-yl)-6-methylpyridin-2-yl)amino)pyrimidin-4-yl)-2-methylphenyl)ethyl)-1,2,4-oxadiazole-5-carboxamide]	1.65	> 10000
Cc1cc(-c2cc(Nc3cc(C)c(N4CCN(CC5CCN(c6ccc(N7CCC(=O)NC7=O)cc6)CC5)CC4)cn3)ncn2)ccc1[C@@H](C)NC(=O)c1nc(C(C)(C)C)no1 [Example 62]	12.3	> 10000
COc1nc(Nc2cc(-c3ccc([C@@H](C)NC(=O)c4nc(C(C)(C)C)no4)c(C)c3)ncn2)ccc1N1CCN(CC2CCN(c3ccc(N4CCC(=O)NC4=O)cc3)CC2)CC1 [Example 63]	0.979	614
COc1cc(Nc2cc(-c3ccc([C@@H](C)NC(=O)c4nc(C(C)(C)C)no4)c(C)c3)ncn2)ncc1N1CCN(CC2CCN(c3ccc(N4CCC(=O)NC4=O)cc3)CC2)CC1 [Example 64, (R)-3-(tert-butyl)-N-(1-(4-(6-((5-(4-((1-(4-(2,4-dioxotetrahydropyrimidin-1(2H)-yl)phenyl)piperidin-4-yl)methyl)piperazin-1-yl)-4-methoxypyridin-2-yl)amino)pyrimidin-4-yl)-2-methylphenyl)ethyl)-1,2,4-oxadiazole-5-carboxamide]	26	> 10000
Cc1cc(-c2cc(Nc3cc(F)c(N4CCN(CC5CCN(c6ccc(N7CCC(=O)NC7=O)cc6)CC5)CC4)cn3)ncn2)ccc1[C@@H](C)NC(=O)c1nc(C(C)(C)C)no1 [Example 65]	3.7	> 10000
Cc1cc(-c2ccnc(Nc3ccc(N4CCN(CC5CCN(c6ccc(N7CCC(=O)NC7=O)cc6)CC5)CC4)c(F)n3)n2)ccc1[C@@H](C)NC(=O)c1nc(C(C)(C)C)no1 [Example 66, (R)-3-(tert-butyl)-N-(1-(4-(2-((5-(4-((1-(4-(2,4-dioxotetrahydropyrimidin-1(2H)-yl)phenyl)piperidin-4-yl)methyl)piperazin-1-yl)-6-fluoropyridin-2-yl)amino)pyrimidin-4-yl)-2-methylphenyl)ethyl)-1,2,4-oxadiazole-5-carboxamide]	2.93	> 10000
Cc1cc(-c2ccnc(Nc3ccc(N4CCN(CC5CCN(c6ccc(N7CCC(=O)NC7=O)cc6)CC5)CC4)cn3)n2)ccc1[C@@H](C)NC(=O)c1nc(C(C)(C)C)no1 [Example 67, (R)-3-(tert-butyl)-N-(1-(4-(2-((5-(4-((1-(4-(2,4-dioxotetrahydropyrimidin-1(2H)-yl)phenyl)piperidin-4-yl)methyl)piperazin-1-yl)pyridin-2-yl)amino)pyrimidin-4-yl)-2-methylphenyl)ethyl)-1,2,4-oxadiazole-5-carboxamide]	10.6	> 10000
Cc1cc(-c2ccnc(Nc3ccc(N4CCN(C5CC6(CCN(c7ccc(N8CCC(=O)NC8=O)cc7)CC6)C5)CC4)cn3)n2)ccc1[C@@H](C)NC(=O)c1nc(C(C)(C)C)no1 [Example 68, (R)-3-(tert-butyl)-N-(1-(4-(2-((5-(4-(7-(4-(2,4-dioxotetrahydropyrimidin-1(2H)-yl)phenyl)-7-azaspiro[3.5]nonan-2-yl)piperazin-1-yl)pyridin-2-yl)amino)pyrimidin-4-yl)-2-methylphenyl)ethyl)-1,2,4-oxadiazole-5-carboxamide]	17.4	> 10000
Cc1cc(-c2ccnc(Nc3ccc(N4CCN(CC5CCN(c6ccc(N7CCC(=O)NC7=O)cc6)CC5)CC4)cc3)n2)ccc1[C@@H](C)NC(=O)c1nc(C(C)(C)C)no1 [Example 69, (R)-3-(tert-butyl)-N-(1-(4-(2-((4-(4-((1-(4-(2,4-dioxotetrahydropyrimidin-1(2H)-yl)phenyl)piperidin-4-yl)methyl)piperazin-1-yl)phenyl)amino)pyrimidin-4-yl)-2-methylphenyl)ethyl)-1,2,4-oxadiazole-5-carboxamide]	2.42	> 10000
Cc1cc(-c2ncnc(Nc3ccc(N4CCN(CC5CCN(c6ccc(N7CCC(=O)NC7=O)cc6)CC5)CC4)cn3)c2F)ccc1[C@@H](C)NC(=O)c1nc(C(C)(C)C)no1 [Example 70, (R)-3-(tert-butyl)-N-(1-(4-(6-((5-(4-((1-(4-(2,4-dioxotetrahydropyrimidin-1(2H)-yl)phenyl)piperidin-4-yl)methyl)piperazin-1-yl)pyridin-2-yl)amino)-5-fluoropyrimidin-4-yl)-2-methylphenyl)ethyl)-1,2,4-oxadiazole-5-carboxamide]	> 2000	> 10000
